± gives the uncertainty stated by the source.
Tested on: ozone
Assay: apparent second-order rate constant for reaction with ozone (kapp,O3) (M-1 s-1); higher = faster oxidation by ozone
Settings: pH 7; temperature: 22 C; OH radical scavenger: tBuOH 80 mM; phosphate 4 mM
Procedure, shortened: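 The apparent second-order rate constant for reaction with ozone is a mean (± SD) from multicompound competition kinetics across qualifying competitors. Mixtures of target and competitors, each at 10 μg L–1 before ozone addition, were prepared in 4 mM phosphate buffer at pH 7 with 80 mM tert-butanol and dosed with ozone solution at compound:O3 molar ratios of 0.0025–100 and 22 ± 1 °C, in triplicate on three days. HPLC-HRMS/MS peak-area abatement in the 10–90% range was regressed against competitors of known constant, and a competitor qualified only with ≥10 points, R2 >0.9 and a slope of 0.1–10.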

Row | SMILES | apparent second-order rate constant
1 | c1ccc2c(c1)Cc1ccccc1N1CCNCC21 (stereo not drawn) [Normianserin] | 570000 ± 48000
2 | c1cncc(C2CCCN2)c1 (stereo not drawn) [Nornicotine] | 6350 ± 520
3 | Cc1cccc(C)c1NC(=O)CN1CCN(CC(O)CO)CC1 (stereo not drawn) [O-Desarylranolazine] | 570000 ± 48000
4 | CCOC(=O)C1=CC(OC(CC)CC)C(NC(C)=O)C(N)C1 (stereo not drawn) [Oseltamivir] | 6130 ± 510
5 | O=c1nc2[nH][nH]cc-2c(=O)[nH]1 [Oxypurinol] | 4 ± 2.5
6 | C[N+](C)([O-])CCC(c1ccccc1)c1ccccn1 (stereo not drawn) [Pheniramine-N-oxide] | 2.4 ± 0.3
7 | CN(C)CCC(c1ccccc1)c1ccccn1 (stereo not drawn) [Pheniramine] | 17600 ± 1700
8 | CC12C=CC(=O)C=C1CCC1C2C(O)CC2(C)C1CCC2(O)C(=O)CO (stereo not drawn) [Prednisolone] | 104 ± 5.6
9 | CC12C=CC(=O)C=C1CCC1C2C(=O)CC2(C)C1CCC2(O)C(=O)CO (stereo not drawn) [Prednisone] | 324 ± 15
10 | CC(C)CC(CN)CC(=O)O (stereo not drawn) [Pregabalin] | 15.6 ± 1.1
11 | CNC(C)C(O)c1ccccc1 (stereo not drawn) [Pseudoephedrine] | 1370 ± 110
12 | CNC(=C[N+](=O)[O-])NCCSCc1ccc(C[N+](C)(C)[O-])o1 [Ranitidine-N-oxide] | 3.45e+06 ± 340000
13 | CNC(=C[N+](=O)[O-])NCC[S+]([O-])Cc1ccc(CN(C)C)o1 (stereo not drawn) [Ranitidine-S-oxide] | 1.75e+06 ± 70000
14 | CNC(=C[N+](=O)[O-])NCCSCc1ccc(CN(C)C)o1 [Ranitidine] | 6.4e+06 ± 500000
15 | O=C(O)C(c1ccccc1)C1CCCCN1 (stereo not drawn) [Ritalinic acid] | 139 ± 7.2
16 | CC(C)c1nc(N(C)S(C)(=O)=O)nc(-c2ccc(F)cc2)c1C=CC(O)CC(O)CC(=O)O (stereo not drawn) [Rosuvastatin] | 3250 ± 260

Row | SMILES | apparent second-order rate constant
17 | Cc1cc(N(C2OC(C(=O)O)C(O)C(O)C2O)S(=O)(=O)c2ccc(N)cc2)no1 (stereo not drawn) [Sulfamethoxazole-N1-glucuronide] | 37000 ± 8000
18 | Nc1ccc(S(=O)(=O)Nc2ccccn2)cc1 [Sulfapyridine] | 537000 ± 180000
19 | Nc1ccc(S(=O)(=O)Nc2nccs2)cc1 [Sulfathiazole] | 9.8e+06 ± 700000
20 | CC[N+]1([O-])CCCC1CNC(=O)c1cc(S(N)(=O)=O)ccc1OC (stereo not drawn) [Sulpiride-N-oxide] | 41 ± 5
21 | CCC(c1cccc(OS(=O)(=O)O)c1)C(C)CN(C)C (stereo not drawn) [Tapentadol-O-sulfate] | 1530 ± 150
22 | CCC(c1cccc(O)c1)C(C)CN(C)C (stereo not drawn) [Tapentadol] | 1.83e+06 ± 140000
23 | Cn1cnc2c1c(=O)[nH]c(=O)n2C [Theobromine] | 1200 ± 65
24 | Cc1cccc(Nc2ccncc2S(=O)(=O)NC(=O)NC(C)C)c1 [Torasemide] | 2990 ± 260
25 | CC(CN(C)C)CN1c2ccccc2CCc2ccccc21 (stereo not drawn) [Trimipramine] | 2e+06 ± 400000
26 | COc1ccc(C(C[N+](C)(C)[O-])C2(O)CCCCC2)cc1 (stereo not drawn) [Venlafaxine-N-oxide] | 168 ± 8.7
27 | COc1ccc(C(CN(C)C)C2(O)CCCCC2)cc1 (stereo not drawn) [Venlafaxine] | 3440 ± 260
28 | COc1ccc(CCN(C)CCCC(C#N)(c2ccc(OC)c(OC)c2)C(C)C)cc1OC (stereo not drawn) [Verapamil] | 64000 ± 14000
29 | Cc1ccc2nc(-c3ccc(C(=O)O)cc3)c(CC(=O)N(C)C)n2c1 [Zolpidem carboxylic acid] | 6.3e+06 ± 400000
30 | Cc1ccc(-c2nc3ccc(C)cn3c2CC(=O)N(C)C)cc1 [Zolpidem] | 1.28e+07 ± 900000
31 | CC(C)c1c(C(=O)Nc2ccccc2O)c(-c2ccccc2)c(-c2ccc(F)cc2)n1CCC(O)CC(O)CC(=O)O (stereo not drawn) [ortho-Hydroxyatorvastatin] | 1.8e+08 ± 4e+07
32 | CC(C)c1c(C(=O)Nc2ccc(O)cc2)c(-c2ccccc2)c(-c2ccc(F)cc2)n1CCC(O)CC(O)CC(=O)O (stereo not drawn) [para-Hydroxyatorvastatin] | 6.6e+07 ± 1.4e+07

Further lines, results first:

Row | apparent second-order rate constant | SMILES
33 | 0.401 ± 0.014 | CCOC(=O)c1c(COCC(=O)O)nc(C)c(C(=O)OC)c1-c1ccccc1Cl [O-Des[2-aminoethyl]-O-carboxymethyl-dehydroamlodipine]
34 | 6.6e+06 ± 500000 | CC(C(=O)O)c1ccc2cc(O)ccc2c1 (stereo not drawn) [O-Desmethylnaproxen]
35 | 2.09e+06 ± 170000 | CN(C)CC(c1ccc(O)cc1)C1(O)CCCCC1 (stereo not drawn) [O-Desmethylvenlafaxine]
36 | 87000 ± 7700 | CCC(CC)OC1C=C(C(=O)O)CC(N)C1NC(C)=O (stereo not drawn) [Oseltamivir acid]
37 | 108 ± 5.6 | COc1ccnc(CS(=O)c2nc3ccc(OC(F)F)cc3[nH]2)c1OC (stereo not drawn) [Pantoprazole]
38 | 1.1e+07 ± 2.4e+06 | CC(=O)Nc1ccc(O)c(SCC(NC(=O)CCC(N)C(=O)O)C(=O)NCC(=O)O)c1 (stereo not drawn) [Paracetamol-glutathione]
39 | 3.3 ± 0.3 | CC(=O)Nc1ccc(OS(=O)(=O)O)cc1 [Paracetamol-sulfate]
40 | 2.4e+06 ± 180000 | CC(=O)Nc1ccc(O)cc1 [Paracetamol]
41 | 68 ± 8 | C#CC[N+](C)([O-])Cc1ccccc1 (stereo not drawn) [Pargyline-N-oxide]
42 | 2890 ± 220 | CNCC(O)c1cccc(OS(=O)(=O)O)c1 (stereo not drawn) [Phenylephrine-3-O-sulfate]
43 | 158000 ± 7000 | CNCC(O)c1cccc(O)c1 (stereo not drawn) [Phenylephrine]
44 | 2.4 ± 0.3 | CCC1(c2ccccc2)C(=O)NCNC1=O [Primidone]
45 | 174000 ± 16000 | CC(C)NCC(O)COc1cccc2ccccc12 (stereo not drawn) [Propanolol]
46 | 16.7 ± 1.8 | C[C@H](C[C@@H](Cc1ccc(-c2ccccc2)cc1)NC(=O)CCC(=O)O)C(=O)O [Sacubitrilat (LBQ657)]
47 | < 0.401 | O=C(O)CCC(=O)O [Succinic acid]
48 | 1.23e+06 ± 110000 | Nc1ccc(S(=O)(=O)Nc2ncccn2)cc1 [Sulfadiazine]
49 | 1.53e+06 ± 100000 | COc1cc(NS(=O)(=O)c2ccc(N)cc2)nc(OC)n1 [Sulfadimethoxine]
50 | 933000 ± 81000 | Cc1cc(C)nc(NS(=O)(=O)c2ccc(N)cc2)n1 [Sulfamethazine]
51 | 1.75e+06 ± 70000 | CCN1CCCC1CNC(=O)c1cc(S(N)(=O)=O)ccc1OC (stereo not drawn) [Sulpiride]
52 | 111 ± 5 | CCCc1nc2c(C)cc(-c3nc4ccccc4n3C)cc2n1Cc1ccc(-c2ccccc2C(=O)OC2OC(C(=O)O)C(O)C(O)C2O)cc1 (stereo not drawn) [Telmisartan-O-acyl-glucuronide]
53 | 120 ± 6.1 | CCCc1nc2c(C)cc(-c3nc4ccccc4n3C)cc2n1Cc1ccc(-c2ccccc2C(=O)O)cc1 [Telmisartan]
54 | 885000 ± 78000 | Cn1c(=O)c2[nH]cnc2n(C)c1=O [Theophylline]
55 | 17400 ± 1700 | Cc1ccc(C(=O)C(C)CN2CCCCC2)cc1 (stereo not drawn) [Tolperisone]
56 | 214 ± 10 | CC(C)NC(=O)NS(=O)(=O)c1cnccc1Nc1cccc(C(=O)O)c1 [Torasemide carboxylic acid]
57 | 1.31e+07 ± 1.6e+06 | O=c1n(CCCN2CCN(c3cccc(Cl)c3)CC2)nc2ccccn12 [Trazodone]
58 | 4.8e+06 ± 300000 | CC(CN1c2ccccc2CCc2ccccc21)C[N+](C)(C)[O-] (stereo not drawn) [Trimipramine-N-oxide]
